Among the data in patent US10947263B2, “Cyclic dinucleotides as anticancer agents” (BRISTOL-MYERS SQUIBB COMPANY, priority 2017, dated 2021) are IC50 and EC50 values, retold here.

pEC50, pIC50: −log10 of the molar value. Read-outs that look alike come from different tables or passages of the source.

The target of assay [1] is T1, STING WT (His-TVMV-S-hSTING(155-341)-H232R) (Homo sapiens, UniProt Q86WV6, H232R).
T1 construct: STING WT: His-TVMV-S-hSTING(155-341)-H232R
The assay is described as follows: STING HTRF binding assay (time resolved FRET competition), STING WT. As to conditions: 20 nM His-tagged STING WT cytoplasmic domain, 200 nM fluorescein-labeled cGAMP analog probe, one hour; read-out: HTRF Binding Assays IC50 WT. As for the experimental part: (§1) A time resolved FRET-based competition binding assay was used to assess test article binding to STING WT and STING AQ. His-tagged STING cytoplasmic domain (WT or AQ) at a concentration of 20 nM was incubated with 2.5 nM Tb-labeled anti-His antibody, test compound, and fluorescein-labeled cGAMP analog probe (BioLog cat. no. C195) at a concentration of 200 nM (STING WT) or 40 nM (STING AQ) in PBS containing 0.005% Tween-20 and 0.1% BSA for one hour. Fluorescence at 495 nm and 520 nm was measured using an EnVision microplate reader to quantify FRET between Tb-labeled anti-His antibody and fluorescein-labeled probe. Background was defined as the signal obtained in the absence of STING protein, and background subtracted FRET ratios were normalized to the maximum signal obtained in the absence of test compound. These values were converted to a percent inhibition. Percent inhibition was determined for test compounds at 11 concentrations. The IC50, defined as the concentration of competing test compound needed to reduce specific binding of the probe by 50%, was calculated using the 4 parameter logistic equation to fit the data
STING WT: His-TVMV-S-hSTING(155-341)-H232R • […] […] […] […] LRQEEKEEV (SEQ ID NO:1)
In general terms: TR-FRET usually uses a lanthanide donor and a delayed reading to cut background.

The subject of assay [2] is STING / IRF pathway in THP1-Dual cells. The assay can be described thus: STING THP1 Reporter Assay, IRF pathway (secreted Lucia luciferase, QUANTI-Luc). The format is cell-based. As to conditions: 10% human plasma, 100% activation = 100 μM cGAMP, luciferase readout, read-out: THP1 Reporter Assays EC50 IRF3. An excerpt:
(§2) THP1-Dual™ cells were derived from the human THP-1 monocyte cell line by stable integration of two inducible reporter constructs. To this end, THP1-Dual™ cells allow the simultaneous study of the […], by monitoring the activity of SEAP, and the IRF pathway by assessing the activity of a secreted luciferase (Lucia). Both reporter proteins are readily measurable in the cell culture supernatant when using QUANTI-Blue™, a SEAP detection reagent, and QUANTI-Luc™, a luciferase detection reagent.
(§3) THP1-Dual™ cells induce the activation of NF-κB in response to STING agonists. They also trigger the IRF pathway upon stimulation with STING agonists, such as cGAMP. Here, the THP-1-Dual cells were used to assess STING binders for function on the cellular level.
(§4) Serial dilutions of compounds in DMSO were added to low volume 384 well plates at 100 nl/well using an ECHO acoustic dispenser (Labcyte, model 550) to achieve final starting concentration of 100 μM in cell suspension. THP-1 Dual™ STING reporter cells (Invivogen, Dual cells cat #THPD-nfis) were added to the plates with compounds at 15,000 cells in 10 μL per well in RPMI media (Gibco, cat #11875) containing 10% human plasma in a low volume 384-well black wall clear bottom tissue culture plate (Corning, cat #3542) for SEAP assay and low volume solid white plate (Corning, cat #3826) for luciferase assay. One column of the plate was reserved for treatment with cGAMP at 100 μM for 100% activation calculation and one column for no treatment (DMSO only) for baseline activation. Plates were then incubated in 37 OC incubator at 5% CO2 for 20 hours.
(§5) In the SEAP assay, […] 2× QuantiBlue (Invivogen, cat #Rep-qb2) is added to 384 well black plates seeded with THP1 cells and incubated at 37° C. for 2 hours. Plates were read on the Envision (Perkin Elmer) at 620 nm wavelength (OD620). In the luciferase assay, 5 μl of Quantiluc (Invivogen, Rep-qlc2) is added to white 384 well plates seeded with THP1 cells and read at 5 minutes on the Envision (Perkin Elmer) using a luminescence protocol (RLU). For both cell lines, 100% activation was determined by value (RLU) of THP-1 Dual STING cells stimulated with 100 μM cGAMP (Invivogen, cat #TLRL-NACGA23-5).
For orientation: Reporter assays use an easily measured gene product as a stand-in for the process of interest.

The test system of assay [3] is STING / NF-κB pathway in THP1-Dual cells. The assay is described as follows: STING THP1 Reporter Assay, NF-κB pathway (SEAP, QUANTI-Blue). As to conditions: 10% human plasma, 100% activation = 100 μM cGAMP, SEAP readout, read-out: THP1 Reporter Assays EC50 NFkB. In kind it is cell-based.
Description: as §2, §3, §4, §5

In assay [4] the target is T2, STING AQ (His-TVMV-S-hSTING(155-341)-G230A-R293Q) (Homo sapiens, UniProt Q86WV6, G230A/H232R/R293Q).
T2 construct: STING AQ: His-TVMV-S-hSTING(155-341)-G230A-R293Q
T2 sequence (Q86WV6 with tags, fused parts or gaps G230A/H232R/R293Q): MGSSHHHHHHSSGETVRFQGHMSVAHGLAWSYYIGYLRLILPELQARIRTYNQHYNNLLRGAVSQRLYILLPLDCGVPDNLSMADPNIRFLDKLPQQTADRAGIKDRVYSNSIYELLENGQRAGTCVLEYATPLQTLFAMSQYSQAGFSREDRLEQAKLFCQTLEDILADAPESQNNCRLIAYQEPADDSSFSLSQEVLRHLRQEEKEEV
The assay can be described thus: STING HTRF binding assay (time resolved FRET competition), STING AQ. As to conditions: 20 nM His-tagged STING AQ cytoplasmic domain, 40 nM fluorescein-labeled cGAMP analog probe, one hour; read-out: HTRF Binding Assays IC50 AQ. As for the experimental part:
as §1
STING AQ: His-TVMV-S-hSTING(155-341)-G230A-R293Q • […] […] […] […] LRQEEKEEV (SEQ ID NO:2)

T1 sequence (Q86WV6 with tags, fused parts or gaps H232R): as the sequence (Q86WV6 with tags, fused parts or gaps G230A/H232R/R293Q) above, with A99G, Q162R counted along it

For orientation: pIC50 means −log10 of the IC50, conventionally taken in molar units. By pEC50 is commonly meant the negative decadic logarithm of the EC50, by convention in mol/L. In the case of `NC(=O)c1cccc2c1nnn2[C@@H]1O[C@@H]2COP(=O)(S)O[C@H]3[C@@H](F)[C@H](n4cnc5c(N)ncnc54)O[C@@H]3COP(=O)(S)O[C@@H]1[C@@H]2F` (single isomer, unassigned) [Example 10-3], the pIC50 in assay [1] is 7.30; in assay [4], 8.30. The negative-log EC50 (pEC50) in assay [2] (20 hours) is 5.29; in assay [3] (20 hours), 5.05.
For `NC(=O)c1cccc2c1nnn2[C@@H]1O[C@@H]2COP(=O)(S)O[C@H]3[C@@H](F)[C@H](n4cnc5c(N)ncnc54)O[C@@H]3COP(=O)(S)O[C@@H]1[C@@H]2F` (single isomer, unassigned) [Example 10-4], the results for the negative logarithm of the IC50 (pIC50) in assay [1] and in assay [4] were 8.00 and 8.70, respectively. Moreover, the pEC50 in assay [2] (20 hours) is 6.52; in assay [3] (20 hours), 6.05.
For the molecule `Nc1ncnc2c1ncn2[C@@H]1O[C@@H]2COP(=O)(S)O[C@@H]3[C@H](F)[C@@H](COP(=O)(S)O[C@H]2[C@H]1F)O[C@H]3n1nnc2c([N+](=O)[O-])cccc21` (single isomer, unassigned) [Example 11-1], the negative logarithm of the IC50 (pIC50) in assay [1] is 8.00; in assay [4], 8.70. The pEC50 in assay [2] (20 hours) is 5.92; in assay [3] (20 hours), 5.68.
In the case of `Nc1ncnc2c1ncn2[C@@H]1O[C@@H]2COP(=O)(S)O[C@@H]3[C@H](F)[C@@H](COP(=O)(S)O[C@H]2[C@H]1F)O[C@H]3n1nnc2c([N+](=O)[O-])cccc21` (single isomer, unassigned) [Example 11-2], the pIC50 was 8.00 in assay [1] and 8.52 in assay [4]. In addition, the results for the negative-log EC50 (pEC50) in assay [2] (20 hours) and in assay [3] (20 hours) were 6.89 and 6.52, respectively.
Take `Nc1ncnc2c1ncn2[C@@H]1O[C@@H]2COP(=O)(S)O[C@@H]3[C@H](F)[C@@H](COP(=O)(S)O[C@H]2[C@H]1F)O[C@H]3n1nnc2c([N+](=O)[O-])cccc21` (single isomer, unassigned) [Example 11-3]: the negative logarithm of the IC50 (pIC50) was 7.30 in assay [1] and 8.00 in assay [4]. In addition, the pEC50 in assay [2] (20 hours) was 5.40; in assay [3] (20 hours) it was 5.01.
`Nc1ncnc2c1ncn2[C@@H]1O[C@@H]2COP(=O)(S)O[C@@H]3[C@H](F)[C@@H](COP(=O)(S)O[C@H]2[C@H]1F)O[C@H]3n1nnc2c([N+](=O)[O-])cccc21` (single isomer, unassigned) [Example 11-4]: the negative-log IC50 (pIC50) in assay [1] was 6.82; in assay [4], 7.70. Further, the pEC50 in assay [2] (20 hours) was 4.68; in assay [3] (20 hours), 4.46.
Consider `Nc1ncnc2c1ncn2[C@@H]1O[C@@H]2COP(=O)(S)O[C@@H]3[C@H](F)[C@@H](COP(=O)(S)O[C@H]2[C@H]1F)O[C@H]3n1nnc2c(N)cccc21` (single isomer, unassigned) [Example 12-1], for which the pIC50 in assay [1] was 7.10; in assay [4] it was 8.00. Further, the negative-log EC50 (pEC50) in assay [2] (Homo sapiens, THP1-Dual, 20 h) was 5.80; in assay [3] (Homo sapiens, THP1-Dual, 20 h), 5.27.
Take `Nc1ncnc2c1ncn2[C@@H]1O[C@@H]2COP(=O)(S)O[C@@H]3[C@H](F)[C@@H](COP(=O)(S)O[C@H]2[C@H]1F)O[C@H]3n1nnc2c(N)cccc21` (single isomer, unassigned) [Example 13-1]: the pIC50 in assay [1] is 7.15; in assay [4] it was 8.00. Further, the pEC50 in assay [2] (20 hours) is 5.92; in assay [3] (20 hours) it was 5.31.
As to `O=[N+]([O-])c1cccc2c1nnn2[C@@H]1O[C@@H]2COP(=O)(S)O[C@H]3[C@@H](F)[C@H](n4cnc5c4ncn4ccnc54)O[C@@H]3COP(=O)(S)O[C@@H]1[C@@H]2O` (single isomer, unassigned) [Example 15-1], the pIC50 in assay [1] is 7.70; in assay [4], 8.00. The pEC50 in assay [2] (20 hours) is 6.00; in assay [3] (20 hours) it was 5.68.
Consider `O=[N+]([O-])c1cccc2c1nnn2[C@@H]1O[C@@H]2COP(=O)(S)O[C@H]3[C@@H](F)[C@H](n4cnc5c4ncn4ccnc54)O[C@@H]3COP(=O)(S)O[C@@H]1[C@@H]2O` (single isomer, unassigned) [Example 15-2], for which the negative logarithm of the IC50 (pIC50) was 5.76 in assay [1] and 7.30 in assay [4]. The pEC50 in assay [2] (20 hours) is 4.20; in assay [3] (20 hours), 4.01.
The corresponding values for `NC(=O)c1cccc2c1nnn2[C@@H]1O[C@@H]2COP(=O)(O)O[C@H]3[C@@H](F)[C@H](n4cnc5c4ncn4ccnc54)O[C@@H]3COP(=O)(S)O[C@@H]1[C@@H]2F` (single isomer, unassigned) [Example 16-1] are 7.05, 8.00, 5.66 and 5.11.
Turning to `NC(=O)c1cccc2c1nnn2[C@@H]1O[C@@H]2COP(=O)(O)O[C@H]3[C@@H](F)[C@H](n4cnc5c4ncn4ccnc54)O[C@@H]3COP(=O)(S)O[C@@H]1[C@@H]2F` (single isomer, unassigned) [Example 16-2], the negative-log IC50 (pIC50) in assay [1] was 6.68; in assay [4] it was 8.00. In addition, the results for the negative-log EC50 (pEC50) in assay [2] (20 hours) and in assay [3] (20 hours) were 4.90 and 4.13, respectively.
With `C=C1[C@H]2OP(=O)(S)OC[C@H]3O[C@@H](n4cnc5c(N)ncnc54)[C@H](F)[C@@H]3OP(=O)(S)OC[C@H]1O[C@H]2n1nnc2c(C(N)=O)cccc21` (single isomer, unassigned) [Example 22-1], the pIC50 in assay [1] and in assay [4] was 8.00 throughout. Also, the pEC50 in assay [2] (Homo sapiens, THP1-Dual, 20 h) was 5.64; in assay [3] (Homo sapiens, THP1-Dual, 20 h) it was 5.29.
As to `C=C1[C@H]2OP(=O)(S)OC[C@H]3O[C@@H](n4cnc5c(N)ncnc54)[C@H](F)[C@@H]3OP(=O)(S)OC[C@H]1O[C@H]2n1nnc2c(C(N)=O)cccc21` (single isomer, unassigned) [Example 22-2], the pIC50 in assay [1] was 7.15; in assay [4] it was 8.00. Moreover, the pEC50 in assay [2] (20 hours) was 5.49; in assay [3] (20 hours) it was 5.00.
Turning to `NC(=O)c1cccc2c1nnn2[C@@H]1O[C@@H]2COP(=O)(O)O[C@H]3[C@@H](F)[C@H](n4cnc5c(N)ncnc54)O[C@@H]3COP(=O)(O)O[C@@H]1[C@@H]2O` [Example 1, 1-[(1R,6R,8R,9R,10R,15R,17R,18R)-8-(6-amino-9H-purin-9-yl)-9-fluoro-3,12,18-trihydroxy-3,12-dioxo-2,4,7,11,13,16-hexaoxa-3λ^5,12λ^5-diphosphatricyclo[13.2.1.0^6,10]octadecan-17-yl]-1H-1,2,3-benzotriazole-4-carboxamide], the pIC50 in assay [1] was 8.00; in assay [4] it was 8.52. For the same molecule, the negative-log EC50 (pEC50) in assay [2] (Homo sapiens, THP1-Dual, 20 h) is 5.82; in assay [3] (Homo sapiens, THP1-Dual, 20 h), 5.49.
